Laboratory results taken from patent publication US20230219904A1 (SYNGENTA CROP PROTECTION AG, priority 2020, published 2023).

What was measured:
Format in all cases: in vivo
Conditions in all cases: applied at 125 g/ha, evaluated after 13 days
[1] = tested on: Amaranthus retoflexus (AMARE); assay: Pre-emergence herbicidal glasshouse test (Table B1)
Procedure, shortened: (§1)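 Pre: spray 1 d after sowing; post: spray after 8 d growth. Rate 500 g/h (default); vehicle acetone/water 50:50, 0.5% Tween 20. Glasshouse 24/16° C, 14 h light, 65% humidity. Readout % damage at 13 d, 5-point scale.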

[2] = tested on: Abutilon theophrasti (ABUTH); assay: as above
Procedure, shortened: as §1

[3] = tested on: Echinochloa crus-galh (ECHCG); assay: as above
Procedure, shortened: as §1

[4] = tested on: Ipomoea hederacea (IPOHE); assay: as above
Procedure, shortened: as §1

[5] = tested on: Setaria faberi (SETFA); assay: as above
Procedure, shortened: as §1

[6] = tested on: Amaranthus retoflexus (AMARE); assay: Post-emergence herbicidal glasshouse test (Table B1)
Procedure, shortened: as §1

[7] = tested on: Abutilon theophrasti (ABUTH); assay: as above
Procedure, shortened: as §1

[8] = tested on: Echinochloa crus-galh (ECHCG); assay: as above
Procedure, shortened: as §1

[9] = tested on: Ipomoea hederacea (IPOHE); assay: as above
Procedure, shortened: as §1

[10] = tested on: Setaria faberi (SETFA); assay: as above
Procedure, shortened: as §1

Compound | PRE Application AMARE, percentage damage on five-point scale [1] | PRE Application ABUTH, percentage damage on five-point scale [2] | PRE Application ECHCG, percentage damage on five-point scale [3] | PRE Application IPOHE, percentage damage on five-point scale [4] | PRE Application SETFA, percentage damage on five-point scale [5] | POST Application AMARE, percentage damage on five-point scale [6] | POST Application ABUTH, percentage damage on five-point scale [7] | POST Application ECHCG, percentage damage on five-point scale [8] | POST Application IPOHE, percentage damage on five-point scale [9] | POST Application SETFA, percentage damage on five-point scale [10]
Cc1cc(C(=O)Nc2c(OC(F)F)ccc(C(=O)Nc3nnnn3C)c2Cl)no1 [Compound 1.044] | 4 (4=60-79%) | 4 (4=60-79%) | 2 (2=20-39%) | 1 (1=0-19%) | 2 (2=20-39%) | 5 (5=80-100%) | 3 (3=40-59%) | 2 (2=20-39%) | 4 (4=60-79%) | 3 (3=40-59%)
COC(C)C(=O)Nc1c(OC(F)(F)F)ccc(C(=O)Nc2nnnn2C)c1Cl (centres unmarked) [Compound 1.063] | 5 (5=80-100%) | 5 (5=80-100%) | 5 (5=80-100%) | 5 (5=80-100%) | 5 (5=80-100%) | 5 (5=80-100%) | 5 (5=80-100%) | 5 (5=80-100%) | 4 (4=60-79%) | 5 (5=80-100%)
CCOC(C)C(=O)Nc1c(OC(F)(F)F)ccc(C(=O)Nc2nnnn2C)c1Cl (centres unmarked) [Compound 1.065] | 5 (5=80-100%) | 5 (5=80-100%) | 5 (5=80-100%) | 5 (5=80-100%) | 5 (5=80-100%) | 5 (5=80-100%) | 5 (5=80-100%) | 5 (5=80-100%) | 5 (5=80-100%) | 5 (5=80-100%)
CCC(=O)Nc1c(OC(F)(F)F)ccc(C(=O)Nc2nnnn2C)c1C(F)(F)F [Compound 1.082] | 5 (5=80-100%) | 5 (5=80-100%) | 5 (5=80-100%) | 3 (3=40-59%) | 4 (4=60-79%) | 4 (4=60-79%) | 4 (4=60-79%) | 3 (3=40-59%) | 4 (4=60-79%) | 4 (4=60-79%)
Cn1nnnc1NC(=O)c1ccc(OC(F)F)c(NC(=O)c2ccc(C(F)(F)F)cn2)c1Cl [Compound 1.084] | 5 (5=80-100%) | 4 (4=60-79%) | 1 (1=0-19%) | 1 (1=0-19%) | 1 (1=0-19%) | 4 (4=60-79%) | 5 (5=80-100%) | 3 (3=40-59%) | 3 (3=40-59%) | 3 (3=40-59%)
CC(=O)Nc1c(OC(F)F)ccc(C(=O)Nc2nnnn2C)c1Cl [Compound 1.090] | 5 (5=80-100%) | 5 (5=80-100%) | 5 (5=80-100%) | 4 (4=60-79%) | 4 (4=60-79%) | 4 (4=60-79%) | 4 (4=60-79%) | 4 (4=60-79%) | 4 (4=60-79%) | 4 (4=60-79%)
Cc1cccnc1C(=O)Nc1c(OC(F)F)ccc(C(=O)Nc2nnnn2C)c1Cl [Compound 1.093] | 5 (5=80-100%) | 5 (5=80-100%) | 5 (5=80-100%) | 4 (4=60-79%) | 4 (4=60-79%) | 4 (4=60-79%) | 4 (4=60-79%) | 5 (5=80-100%) | 4 (4=60-79%) | 4 (4=60-79%)
Cc1c(C(=O)Nc2c(OC(F)F)ccc(C(=O)Nc3nnnn3C)c2Cl)nn(C)c1C [Compound 1.098] | 3 (3=40-59%) | 4 (4=60-79%) | 1 (1=0-19%) | 4 (4=60-79%) | 4 (4=60-79%) | 4 (4=60-79%) | 4 (4=60-79%) | 4 (4=60-79%) | 4 (4=60-79%) | 4 (4=60-79%)
Cn1nnnc1NC(=O)c1ccc(OC(F)F)c(NC(=O)c2ccc(F)cc2)c1Cl [Compound 1.099] | 5 (5=80-100%) | 4 (4=60-79%) | 1 (1=0-19%) | 3 (3=40-59%) | 1 (1=0-19%) | 4 (4=60-79%) | 4 (4=60-79%) | 4 (4=60-79%) | 4 (4=60-79%) | 3 (3=40-59%)
Cn1nnnc1NC(=O)c1ccc(OC(F)F)c(NC(=O)c2ncccc2F)c1Cl [Compound 1.100] | 5 (5=80-100%) | 5 (5=80-100%) | 1 (1=0-19%) | 2 (2=20-39%) | 3 (3=40-59%) | 4 (4=60-79%) | 4 (4=60-79%) | 4 (4=60-79%) | 4 (4=60-79%) | 4 (4=60-79%)
COc1ccc(C(=O)Nc2c(OC(F)F)ccc(C(=O)Nc3nnnn3C)c2Cl)cc1 [Compound 1.101] | 4 (4=60-79%) | 4 (4=60-79%) | 1 (1=0-19%) | 2 (2=20-39%) | 4 (4=60-79%) | 4 (4=60-79%) | 4 (4=60-79%) | 5 (5=80-100%) | 4 (4=60-79%) | 4 (4=60-79%)
